Patent US20260209152A1, “Substituted Hydroxystilbene Compounds and Derivatives, Synthesis and Uses Thereof” (Kynan Duke IP, LLC, priority 2019, published 2026)
Where two headings read alike, the source gives them in different places.

Tests used:
Pancreatic MIA PaCa-2 = assay: CellTiter Glo cell viability assay; assay type: cell-based, human; conditions: Homo sapiens, read-out: IC50
Procedure: (§1) 1.7*10^3 cells/well were seeded in quadruplicates in 96-well plate after plating. Drugs were added at 5 μM and 2-fold dilutions over 18 concentrations (0.000038146-5 M concentration range) to generate a dose-response curve. Cell growth was assessed on day 1, 3 and 5 after drug treatments using the CellTiter Glo Luminescence Cell Viability Assay (Promega) according to manufacturer's protocol. Thermo Scientific Varioskan LUX Multimode Microplate instrument was used for plate reading. Data are expressed as mean luminescence (arbitrary units) ±S.D.
(§2) Cell Viability Assays were employed to determine the concentration of Compound 1 (KYN-001) and analogues where the response is reduced by half. For each treatment of cancer cells, 1, 2, 5, 10 and 20 μM solutions of compounds were applied. GraphPad Prism 7 software was used to fit dose response curves. Relative Luminescence Units were plotted against the log values of the doses used and the nonlinear regression model was used for data analysis.
(§3) The protocol for cell proliferation was optimized for Compound 8 (KYN-119) to enable a more accurate assessment of its low IC50 value. In this protocol, 18 dosages (2 fold dilutions ranging from 0.000038146 to 5 μM) were applied to cells seeded in 96-well plates, and Luminescence was measured after 1, 3 and 5 days upon treatments.
Day 3 upon treatment of MIA PaCa_2 pancreatic cancer cells, 24 h after plating (11 dilutions), as assessed by CellTiter Glow Assay.

[1] = system: Cancer cells including pancreatic, bladder, kidney, colon, breast, lung, liver and osteosarcomas; assay: CellTiter Glo cell viability assay, panel of cancer cell lines; assay type: cell-based, human; conditions: SAR discussion based on IC50 values in Tables 1 to 5; compared with 1 [KYN-001]
Procedure: Compounds 1 to 15 were evaluated and their effect on cancer growth examined in cell viability assays on multiple cancer types (Tables 1 to 5). Cancer cells including pancreatic, bladder, kidney, colon, breast, lung, liver and osteosarcomas obtained from ATCC (American Type Culture Collection) were authenticated before use by Short Tandem Repeat genomic analysis (Reid Y, Storts D, Riss T and Minor L. Authentication of Human Cell Lines by STR DNA Profiling Analysis. 2013 May 1. In: Markossian S, Sittampalam G S, Grossman A, et al., editors. Assay Guidance Manual. Bethesda (MD): Eli Lilly & Company and the National Center for Advancing Translational Sciences; 2004.). Experimental protocol for each cancer cell line was verified and optimized according to literature reports before use (Tables 1 to 3).
as §1, §2, §3

Brain U-87 MG HTB-14 = assay: CellTiter Glo cell viability assay; assay type: cell-based; conditions: Homo sapiens, Table 5B: 11 dilutions 3-0.00001 μM, Exp L-N
Procedure: as §1, with “Drugs were added at 5 μM and 2-fold dilutions over 18 concentrations (0.000038146-5 M concentration range) to generate a dose-response curve.” left out
as §2, with “For each treatment of cancer cells, 1, 2, 5, 10 and 20 μM solutions of compounds were applied.” left out

[2] = system: IL-17A secretion from human PBMC stimulated with antiCD3/antiCD28-coated beads; conditions: assay description, cited from earlier work
Kidney A-498 = assay: CellTiter Glo cell viability assay; assay type: cell-based, human; conditions: Homo sapiens, A498, Table 5A: 11 dilutions 3-0.00001 μM; single experiments Exp E-K; read-out: IC50
Procedure: as §1, with “Drugs were added at 5 μM and 2-fold dilutions over 18 concentrations (0.000038146-5 M concentration range) to generate a dose-response curve.” left out
as §2, with “For each treatment of cancer cells, 1, 2, 5, 10 and 20 μM solutions of compounds were applied.” left out
The protocol for cell proliferation was optimized for Compound 8 (KYN-119) to enable a more accurate assessment of its low IC50 value. […]

[3] = Stability in solution (LCMS observation); assay type: physicochemical; conditions: standing in methanol for 16 hours; acetonitrile in water chromatography
Procedure: NOTE: In a trial run, compound 15-9 (50 mg) was converted to compound 15 using conditions as described above.

GBM patient sample BNB18 = assay: Ex vivo GBM 3D spheroid drug response (CellTiter-Glo 3D); assay type: cell-based, human; parameters: key to TMZ Response: NR: Non-responder; MR: Moderate responder; Responder; conditions: 3D spheroids
Description: (§4) This project involves an ex vivo drug response screen for 3 ROKiT Pharma test agents and Temozolomide in 3 previously dissociated and cryopreserved GBM samples.
(§5) • 2.1 Three previously processed GBM patient samples were chosen to be used in this study.

GBM patient sample BNB04 = assay: as above; assay type: cell-based, human; parameters: key to TMZ Response: NR: Non-responder; MR: Moderate responder; Responder; conditions: 3D spheroids
Description: as §4, §5

GBM patient sample BNA99 = assay: as above; assay type: cell-based, human; parameters: key to TMZ Response: NR: Non-responder; MR: Moderate responder; Responder; conditions: 3D spheroids
Description: as §4, §5

[4] = MIA PaCa-2, Table 5B: MIA PaCa-2 CRL-1420, 11 dilutions 3-0.00001 μM, Exp L-N

SMILES | IC50 (Pancreatic MIA PaCa-2; [4]) [µM] | Cancer cell viability inhibition, statement in words [1] | IC50 (Brain U-87 MG HTB-14) [µM] | also measured
COc1cc(/C=C/c2cc(O)cc(NC(C)=O)c2CC=C(C)C)ccc1O [Compound 49, (E)-N-(5-hydroxy-3-(4-hydroxy-3-methoxystyryl)-2-(3-methylbut-2-en-1-yl)phenyl)acetamide] | 0.531 | anticancer activities comparable to 1 | 1.41 | 
C=CC[C@@H]1/C=C(\C)C[C@H](C)C[C@H](OC)[C@H]2O[C@@](O)(C(=O)C(=O)N3CCCC[C@H]3C(=O)O[C@H](/C(C)=C/[C@@H]3CC[C@@H](O)[C@H](OC)C3)[C@H](C)[C@@H](O)CC1=O)[C@H](C)C[C@@H]2OC [Tacrolimus] |  |  |  | Emax (plateau of the fitted curve), IL-17A release (reference compound) [2]: approximately 90%; EC50 ([2]; read-out: EC50, IL-17A release (reference compound)): ~0.00034 µM
CCOc1cc(O)cc(/C=C/c2ccc(N(O)C(C)=O)c(OC)c2)c1CC=C(C)C [Compound 39, (E)-N-(4-(3-ethoxy-5-hydroxy-2-(3-methylbut-2-en-1-yl)styryl)-2-methoxyphenyl)-N-hydroxyacetamide] | > 3 | almost complete loss of anticancer activity | ~3 | 
COc1cc(/C=C/c2cc(O)cc(NC=O)c2CC=C(C)C)ccc1O [Compound 48, (E)-N-(5-Hydroxy-3-(4-hydroxy-3-methoxystyryl)-2-(3-methylbut-2-en-1-yl)phenyl)formamide] | 0.486 | anticancer activities comparable to 1 | 0.555 | 
CNc1cc(/C=C/c2cc(O)cc(OC)c2CC=C(C)C)ccc1O [Compound 15, (E)-3-(4-Hydroxy-3-(methylamino)styryl)-5-methoxy-4-(3-methylbut-2-en-1-yl)phenol] |  | inactive or weakly active |  | IC50 (Pancreatic MIA PaCa-2; MIA PaCa-2, Table 5A: 11 dilutions 3-0.00001 μM, single experiments Exp E-K): > 3 µM; IC50 (Kidney A-498): > 3 µM; Stability in solution [3]: might be unstable in solution
Cn1nnc2c(C(N)=O)ncn2c1=O [TMZ, Temozolomide, reference compound] |  |  |  | TMZ Response (GBM patient sample BNB18): R; TMZ Response (GBM patient sample BNB04): MR; TMZ Response (GBM patient sample BNA99): NR
CCOc1cc(O)cc(/C=C/c2ccc3[nH]c(=O)n(C)c3c2)c1CC=C(C)C [Compound 51, (E)-6-(3-Ethoxy-5-hydroxy-2-(3-methylbut-2-en-1-yl)styryl)-1-methyl-1,3-dihydro-2H-benzo[d]imidazol-2-one] |  | no significant activity | ~3 | 
